Results on 10 molecules are retold here after patent US6406701B1, “Method and compositions for preventing or reducing HIV infection” (priority 2000, dated 2002).

Where two headings read alike, the source gives them in different places.

One data set relates to HUT78 cells. In words: Extracellular LAPase activity of HUT78 cells incubated with 17-β-Estradiol. The class given is cell-based.
The test system of data set [1] is HIV. In words: HIV infectivity of HUT78 cells by reverse transcriptase activity with or without 17-β-Estradiol. As to conditions: for RT Activity: estrogen 10^−7 M.
Procedure: The sensitivity of CD4^+ T-HUT78 cells to HIV viral infection was determined by measuring the activity of reverse transcriptase in cells infected in the presence/absence of 17-β-Estradiol.
Another data set has as its system LAPase. In words: Estrogen incubation with purified LAPase preparations. The conditions noted are these: purified enzyme alone. Type of data set: biochemical. The protocol:
(§1) Control cells were cultured in the absence of 17-β-Estradiol.). During the same period, LAPase in cell supernatants of control cells remain unchanged. In addition, LAPase activity was determined in supernatants of primary parental cell lines immunoprecipitated with anti-LAP-Protein G MAb 7B6 bound antibodies. […] In addition, there was no effect of estrogen incubation on LAPase activity in purified preparations of this enzyme alone.

The subject of data set [2] is breast carcinoma parental cells. In words: LAPase release from primary breast carcinoma parental cells after estrogen stimulation (supernatants immunoprecipitated with MAb 7B6, fluorometric assay). The class given is cell-based, human. Here is the method:
as §1
Primary parental breast carcinoma cells obtained from human tumour biopsies were stimulated with 100 nM 17-β-Estradiol for 24 hours or cell media alone as a control. The cell media was RPMI 1640 medium+10% FCS+100 U/ml Penicillin+100 μg/ml Streptomycin. Cell supernatants were collected and then dialyzed against PBS in seamless cellulose tubing (MW 12,400) for 12 hours at 4° C. Es-LAPase was subsequently purified from the dialyzed cell supernatants using HPLC-gel permeation followed by DEAE-Cellulose and Bestatin-Sepharose affinity Chromatography. Briefly, the cell supernatant was applied to a Bio-Sil SEC-250 column (600×7.5 mm) previously equilibrated in a buffer containing 100 mM Sodium Phosphate buffer pH 6.8, 100 mM Na2SO4, 1 μM ZnCl2 and 10% glycerol. […]
Es-LAPase activities were determined fluorometrically using leucine-b-naphthylamide as the substrate [Kuramochi, H., et al. (1987) J. Antibiot., 40,1605-1611].

Data set [3] has as its system HIV-1 (HTLVIIIb). Type of data set: cell-based. As to conditions: for Cytopathicity / Proviral Load: anti-estrogen 10^−7M combined with Mab 7B6 and thioredoxin matrices. Here is the method: (§2) In the continued presence of each of the factors aforementioned, the cells were subsequently infected at a multiplicity of two infective viral particles per cell for two hours at 25° C. with constant agitation in a final volume of 1.0 ml. […] Syncytium formation was evaluated by light microscopy on days 3, 5 and 7.
(In general: Protection from cytopathic effect is a common read-out in antiviral testing.)

Data set [4] deals with HIV-1 (HTLVIIIb). The class given is cell-based. As to conditions: Day 5 post-infection; anti-estrogen 10^−7M combined with Mab 7B6 and thioredoxin matrices. The protocol: as §2
Prior to infection, HUT78 cells were washed three times with PBS and the cell viability was determined. Infection was performed as described above. At indicated time intervals, 1.0 mil aliquots of were taken and p24 antigen quantified using a commercial ELISA kit (p24 Antigen Capture ELISA, ABBOTT Diagnostics Division), following the instructions of the manufacturer.

For a further data set, the system named is es-LAPase. The experiment in a line: es-LAPase enzyme kinetics and inhibition (l-leucine-β-naphthylamide, 330 nm). Type of data set: biochemical, human. The conditions noted are these: for es-LAPase reaction rate versus control es-LAPase (FIG. 3): 167 μM Bestatin, 167 μM reduced glutathione, 17 μM reduced thioredoxin; for mode of es-LAPase inhibition: from Vmax, Km, Ki of Table 4. Here is the method: The kinetic assays were performed using a Spectronic Genesys 5 spectrophotometer from Milton Roy (Rochester, N.Y.). Absorbance was recorded every sixty seconds, over a period of 30 min. Enzyme kinetic assays were performed using 8.0×10^−2 U of es-LAPase in a final reaction volume of 600 μl and triplicate samples. […] A corresponding blank without es-LAPase was used as baseline. Both of the cuvettes were transferred to the spectrophotometer where the 1-leucine-β-naphthylamide solution was added last, marking time zero of the reaction.

The test system of data set [5] is HIV. As to conditions: Tamoxifen concentrations of 10^−6M or higher; cited from earlier work.
Setting [6] is: es-LAPase with 167 μM inhibitor.

In the case of 17-β-Estradiol, the “concentration of maximum stimulation of LAPase release” value in the data set with HUT78 cells was 10^−7 M. The “LAPase activity, 17-β-Estradiol Stimulation” value in the data set with HUT78 cells ([β-Estradiol] 10^−5 M) was 10.8 U* × 10^−5/ml; with HUT78 cells ([β-Estradiol] 10^−6 M), 20.4 U* × 10^−5/ml; in the data set with HUT78 cells ([β-Estradiol] 10^−7 M), 148.6 U* × 10^−5/ml; in the data set with HUT78 cells ([β-Estradiol] 10^−8 M) it was 110.7 U* × 10^−5/ml. For the same molecule, the “HIV viral infectivity (RT activity) relative to control cells infected in the absence of estrogen” value in the data set with HIV [1] (3 days and 5 days post infection) is “approximately 4 times”. Besides, the “RT Activity” value with HIV [1] (Day 0 (Infection)) came to 0.68 cpm × 10^2/10 μl; in the data set on HIV [1] (Day 3 (Post Infection)), 72.42 cpm × 10^2/10 μl; with HIV [1] (Day 5 (Post Infection)) it was 124.44 cpm × 10^2/10 μl. Further, the “effect of estrogen incubation on LAPase activity in purified preparations of the enzyme” value in the data set with LAPase is given as “no effect”. For the same molecule, the “extracellular LAPase activity of estrogen stimulated cells” value in data set [2] (100 nM, 24 hours, supernatants immunoprecipitated with anti-LAP-Protein G MAb 7B6) is 7.7×10^−5 U/ml. Moreover, the “estrogen concentration of maximum release of LAPase” value in data set [2] (breast carcinoma parental cells, 24 hours of incubation) is on record as 100 nM.
On to `C#C[C@]1(O)CC[C@H]2[C@@H]3CC[C@H]4C[C@@H](O)CC[C@@H]4[C@H]3CC[C@@]21C` [3β,5α-tetrahydro Norethisterone], for which, in the data set with HIV-1 (HTLVIIIb) [3] (Day 5 post-infection), the Cytopathicity was determined as 0 Syncytia/well and the “Proviral Load” value is reported as 2 copies. The P24 in the data set on HIV-1 (HTLVIIIb) [4] was determined as 0 nmol/mL.
Consider `C[C@]12CCC(=O)C(O)=C1CC[C@@H]1[C@@H]2CC[C@]2(C)C(=O)CC[C@@H]12` [4-hydroxyandrostenedione], for which, in the data set on HIV-1 (HTLVIIIb) [3] (Day 5 post-infection), the Cytopathicity is 4.0 ± 0.4 Syncytia/well and the “Proviral Load” value came to 12 copies. For the same molecule, in the data set with HIV-1 (HTLVIIIb) [4], the P24 was 0.02 ± .001 nmol/mL.
Turning to `CC(C)C[C@H](NC(=O)[C@@H](O)[C@H](N)Cc1ccccc1)C(=O)O` [Bestatin], the “es-LAPase reaction rate versus control es-LAPase (FIG. 3)” value in the data set on es-LAPase is listed as “clearly inhibits”. Further, the Vmax in the data set on es-LAPase (setting [6]) is reported as 34.0 ± 3.9 10^−6 M/min. The “mode of es-LAPase inhibition” value in the data set on es-LAPase is “competitive”. For the same molecule, the HIV-1 proviral copies is 0 copies in the data set on HIV-1 (HTLVIIIb) [3] (Day 0 post-infection, 120 μg/ml); 7 ± 2 copies with HIV-1 (HTLVIIIb) [3] (Day 3 post-infection, 120 μg/ml); 29 ± 3 copies in the data set on HIV-1 (HTLVIIIb) [3] (Day 5 post-infection, 120 μg/ml); 457 ± 12 copies in the data set with HIV-1 (HTLVIIIb) [3] (Day 7 post-infection, 120 μg/ml).
For the molecule `CC/C(=C(/c1ccc(OCCN(C)C)cc1)c1cccc(O)c1)c1ccccc1` [Droloxifene], in the data set on HIV-1 (HTLVIIIb) [3] (Day 5 post-infection), the Cytopathicity is 5.2 ± 0.6 Syncytia/well and the “Proviral Load” value is recorded as 14 copies. Further, in the data set with HIV-1 (HTLVIIIb) [4], the P24 was 0.04 ± .003 nmol/mL.
As to `N[C@@H](CCC(=O)N[C@@H](CS)C(=O)NCC(=O)O)C(=O)O` [Glutathione], in the data set on es-LAPase, the “es-LAPase reaction rate versus control es-LAPase (FIG. 3)” value is “significant slower rates” and the “mode of es-LAPase inhibition” value is given as “noncompetitive”. The Vmax in the data set with es-LAPase (setting [6]) was 17.2 ± 1.5 10^−6 M/min.
With `CC/C(=C(\c1ccc(I)cc1)c1ccc(OCCN2CCCC2)cc1)c1ccccc1` [Idoxifene], in the data set on HIV-1 (HTLVIIIb) [3] (Day 5 post-infection), the Cytopathicity was determined as 0 Syncytia/well and the “Proviral Load” value amounted to 0 copies. Besides, in the data set on HIV-1 (HTLVIIIb) [4], the P24 amounted to 0 nmol/mL.
Consider `O=C(c1ccc(OCCN2CCCCC2)cc1)c1c(-c2ccc(O)cc2)sc2cc(O)ccc12` [Raloxifene], for which, in the data set on HIV-1 (HTLVIIIb) [3] (Day 5 post-infection), the Cytopathicity amounted to 3.3 ± 0.1 Syncytia/well and the “Proviral Load” value is 8 copies. The P24 with HIV-1 (HTLVIIIb) [4] is 0.01 ± .002 nmol/mL.
For the molecule `CC/C(=C(\c1ccccc1)c1ccc(OCCN(C)C)cc1)c1ccccc1` [Tamoxifen], in the data set with HIV [5], the “inhibition of HIV infection” value is listed as “incomplete inhibition”. In the data set with HIV-1 (HTLVIIIb) [3] (Day 5 post-infection), the Cytopathicity was determined as 0 Syncytia/well and the “Proviral Load” value was determined as 0 copies. In the data set with HIV-1 (HTLVIIIb) [4], the P24 is 0 nmol/mL.

B1: Thioredoxin: Human Thioredoxin purified from CD4+ T MP6 cells; uncompetitive inhibitor of es-LAPase; also linked to EDC/DADPA matrix (protein, UniProt P10599 2-105, looked up)
Thioredoxin: VKQIESKTAFQEALDAAGDKLVVVDFSATWCGPCKMIKPFFHSLSEKYSNVIFLEVDVDDCQDVASECEVKCMPTFQFFKKGQKVGEFSGANKEKLEATINELV
modifications: linked to EDC/DADPA matrix
A word on the Km: it is the concentration of substrate that gives half-maximal velocity. Regarding B1, in the data set with es-LAPase, the “es-LAPase reaction rate versus control es-LAPase (FIG. 3)” value is recorded as “significant slower rates”. Further, the Km with es-LAPase (es-LAPase with 17 μM inhibitor) worked out at 23.4 ± 0.6 µM. For the same molecule, the Vmax in the data set on es-LAPase (es-LAPase with 17 μM inhibitor) is recorded as 5.31 ± 0.02 10^−6 M/min. Moreover, the “mode of es-LAPase inhibition” value with es-LAPase was “uncompetitive”. The HIV-1 proviral copies with HIV-1 (HTLVIIIb) [3] (Day 0 post-infection, matrix-bound, 40 ng/5 ml) came to 0 copies; with HIV-1 (HTLVIIIb) [3] (Day 3 post-infection, matrix-bound, 40 ng/5 ml), 4 ± 1 copies; with HIV-1 (HTLVIIIb) [3] (Day 5 post-infection, matrix-bound, 40 ng/5 ml) it was 12 ± 3 copies; in the data set on HIV-1 (HTLVIIIb) [3] (Day 7 post-infection, matrix-bound, 40 ng/5 ml), 122 ± 8 copies. Also, the “number of HIV-1 proviral copies compared to control cells (in words)” value in the data set with HIV-1 (HTLVIIIb) [3] (matrix-bound, incubated with HUT 78 cells 7 hours prior to infection) is “significantly reduces”.
